Results taken from paper PMC7822874, “Chemoprotective antimalarials identified through quantitative high-throughput screening of Plasmodium blood and liver stage parasites” (Scientific Reports, 2021).
Read-outs that look alike come from different tables or passages of the source.

How the values were obtained:
HepG2 = conditions: human, hepg2 cells, 48 h
in vitro = conditions: human, hepg2 cells
[1] = test system: Plasmodium falciparum Dd2 asexual blood stage parasites; test: microbe, parasite or virus in culture; parameters: species or system Plasmodium falciparum Dd2 in human erythrocytes; single determination (one 11-point concentration-response curve); conditions: Plasmodium falciparum, DD2, Erythrocyte, 72 h

Log AC50 (M) (HepG2) | SMILES | CC50 at 48 h (in vitro) [µM] | AC50 ([1]; read-out: AC50) [µM] | AC50 [1] [µM]
-4.4143 | Cc1cccc(CN2CCCC(O)(CNCc3ncccc3C)C2=O)c1 (stereo not drawn) [NCGC00429062-01] | 38.5 | 16.8 | 
-4.3643 | Cc1ccc2nc(C)cc(Nc3ccc([N+](=O)[O-])cc3)c2c1 [MLS000710716-01] | 43.2 | 6.68 | 
-4.3643 | CCOc1ccccc1NC(=O)Nc1ccc2nc(N3CCN(C)CC3)cc(C)c2c1 [NCGC00126491-01] | 43.2 | 1.33 | 
-4.9143 | CC1CCCN(Cc2c(O)ccc3c4c(c(=O)oc23)CCCC4)C1 (stereo not drawn) [MLS000778333-01] | 12.2 | 6.68 | 
-4.5143 | COc1ccc(C2=CC(c3ccc(F)cc3)n3ncc(C(=O)Nc4ccc(C)cc4)c3N2)cc1 (stereo not drawn) [NCGC00127228-01] | 30.6 | 2.37 | 
-4.3643 | CCCC1=Nc2cc(C(=O)NCCCN3CCCCC3CC)ccc2Sc2ccc(C)cc21 (stereo not drawn) [NCGC00424661-01] | 43.2 | 9.44 | 
-4.3643 | O=C1NCN(c2ccccc2)C12CCN(CCCC(c1ccc(F)cc1)c1ccc(F)cc1)CC2 [NCGC00015424-04] | 43.2 | 5.31 | 
-4.6143 | CCCN1CCN(CCCNC(=O)c2ccc3c(c2)sc2nc(-c4ccc(OCC)cc4)cn23)CC1 [NCGC00113254-01] | 24.3 | 4.22 | 
-4.3643 | C=C(C)COc1ccc(-c2n[nH]c(C)c2-c2ccccc2)c(O)c1 [MLS000083081-01] | 43.2 | 4.73 | 
-4.3643 | O=C(c1cc(NC(=O)C23CC4CC(CC(C4)C2)C3)cc(NC(=O)C23CC4CC(CC(C4)C2)C3)c1)N1CCCCC1 [MLS000549502-01] | 43.2 | 5.96 | 
-4.3643 | Cc1cc(N2CCN(C)CC2)nc2ccc(NC(=O)Nc3cccc(Cl)c3)cc12 [NCGC00126479-01] | 43.2 | 4.22 | 
-4.3643 | CCCCN(CC)CCCNC(=O)c1ccc2c(c1)N(Cc1ccc(C)cc1)C(=O)c1ccccc1S2 [NCGC00139764-01] | 43.2 | 1.88 | 
-4.3643 | CCOc1ccc(C2=C(C(C)=O)Sc3nnc(C)n3N2C(C)=O)cc1 [NCGC00137200-01] | 43.2 | 5.31 | 
-4.5643 | COc1ccc(/C=N/Nc2nc(Nc3ccccc3)nc(N3CCCC3)n2)cc1[N+](=O)[O-] [MLS000723644-01] | 27.3 | 6.68 | 
-5.9643 | Cc1cc(NCc2ccccn2)n2nc(C)c(-c3ccccc3)c2n1 [MLS000559925-01] | 1.09 | 13.3 | 
-4.5143 | CCN1CCN(c2cc(C)c3cc(NC(=O)/C=C/c4ccc(OCCC(C)C)cc4)ccc3n2)CC1 [NCGC00103856-01] | 30.6 | 2.11 | 
-4.9643 | O=C(Nc1nnc(SCc2ccc(F)cc2)s1)c1ccccn1 [MLS001003501-01] | 10.9 | 8.41 | 
-4.5643 | O=C(Nc1ccc([C@H]2OCC(=O)N(Cc3ccncc3)[C@@H]2CO)cc1)c1ccc(C(F)(F)F)cc1 [NCGC00395114-01] | 27.3 | 16.8 | 
-4.3643 | CCN1CCN(c2cc(C)c3cc(NC(=O)/C=C/c4ccc(C)cc4)ccc3n2)CC1 [NCGC00103850-01] | 43.2 | 4.22 | 
-4.8143 | Cc1nc(-c2ccccn2)nc(N(C)c2ccccc2)c1Cl [MLS001182279-01] | 15.3 | 5.31 | 
-4.3028 | O[C@H]1[C@H](NCC2CCCCC2)[C@H]2CO[C@H](O2)[C@@H]1N1CCC(Cc2ccccc2)CC1 [NCGC00394729-01] | 49.8 | 1.37 | 

Log AC50 (M) (HepG2) | SMILES | CC50 at 48 h (in vitro) [µM] | AC50 ([1]; read-out: AC50) [µM] | AC50 [1] [µM]
-4.3643 | FC(F)(F)c1cnc(N2CCCN(C(S)=Nc3ccccc3)CC2)c(Cl)c1 [MLS000833545-01] | 43.2 | 4.73 | 
-4.4643 | CCCCNc1cc(C)nc(NCc2ccccc2)n1 [MLS000078573-01] | 34.3 | 9.44 | 
-4.3643 | CCCCN1C(=O)c2[nH]nc(-c3ccccc3O)c2C1c1ccc(OCc2ccccc2)cc1 (stereo not drawn) [NCGC00115502-01] | 43.2 | 5.96 | 
-4.3643 | Cc1ccc(Oc2c(C)[nH]c(-c3ccccc3)nc2=O)cc1 [MLS000851017-01] | 43.2 | 5.31 | 
-4.4643 | Cc1cc(NC2CCCCC2)nc(NCc2ccccc2)n1 [MLS000555549-01] | 34.3 | 16.8 | 
-4.4143 | CC(C)(C)c1ccc(-c2cc(C[C@H]3CNCC[C@H]3CC(=O)N3CCN(c4ccccn4)CC3)no2)cc1 [NCGC00400637-01] | 38.5 | 15 | 
-4.5143 | CCN(CC)CCNC(=O)c1ccc(NC(=O)c2cn(-c3ccc(F)cc3)nc2-c2cccc(OC)c2)cc1 [MLS001233779-01] | 30.6 | 9.44 | 
-4.3643 | Cc1ccc(CNCc2cc3c(C(C)(C)C)nn(-c4ccccc4)c3[nH]c2=O)cc1 [MLS000067257-01] | 43.2 | 0.266 | 
-4.9143 | CN(C)CCCNc1c2ccccc2nc2ccccc12 [MLS001198528-01] | 12.2 | 4.22 | 
-4.5143 | O=C(Nc1ccc([N+](=O)[O-])cc1)Nc1ccc(OC(F)F)c(Cl)c1 [MLS000581434-01] | 30.6 | 2.66 | 
-4.3643 | CC(=O)C1=C(c2ccc(Cl)c(Cl)c2)N(C(C)=O)n2cnnc2S1 [NCGC00137238-01] | 43.2 | 3.76 | 
-4.5643 | CC(C)c1nc(-c2ccc(OC3CCN(C(=O)CCc4nc5ccccc5[nH]4)C3)cc2)no1 (stereo not drawn) [NCGC00441007-01] | 27.3 | 15 | 
-4.4643 | COc1ccc(/C=C/C(=O)Nc2ccc3nc4c(c(Nc5ccccc5OC)c3c2)CCCC4)cc1 [NCGC00104041-01] | 34.3 | 3.35 | 
-4.4643 | CC1=C[C@@H](CNCc2cccnc2)[C@H](C(C)C)C[C@H]1Cc1nnc(-c2ccc(N(C)C)cc2)o1 [NCGC00421481-01] | 34.3 | 5.31 | 
-4.4643 | COc1ccc(NC(=O)c2ccc(Cl)c(S(=O)(=O)N3CCc4ccccc4C3)c2)cn1 [MLS000057537-01] | 34.3 | 7.5 | 
-4.5143 | CCN(CC)CCNc1ccnc2cc(Cl)ccc12 [MLS000066547-01] | 30.6 | 0.211 | 
-6.0143 | Fc1cccc(NC(S)=NNc2c3ccccc3nc3ccccc23)c1 [MLS000660813-01] | 0.968 | 15 | 
-4.3643 | CC(Sc1nc2ccccc2c(=O)n1C)C(=O)N(C)C1CCCCC1 (stereo not drawn) [MLS001098006-01] | 43.2 | 5.31 | 
-4.6143 | CCOc1ccc(NS(=O)(=O)c2csc(C(N)=O)c2)cc1 [MLS001199948-01] | 24.3 | 7.5 | 
-4.3643 | COc1cc(Cl)c(NC2=CC(=O)C(=O)c3ccccc32)c(OC)c1 [MLS001360325-01] | 43.2 | 1.68 | 

SMILES | Log AC50 (M) (HepG2) | CC50 at 48 h (in vitro) [µM] | AC50 ([1]; read-out: AC50) [µM] | AC50 [1] [µM]
Cc1noc(C)c1Cc1ccc(C(=O)N2[C@H]3CC[C@@H]2c2cnc(-c4ccccc4)nc2C3)o1 [NCGC00458744-01] | -4.5643 | 27.3 | 9.44 | 
O=C(Nc1ccc(C(F)(F)F)cc1)N1CCN(c2ccnc3cc(Cl)ccc23)CC1 [MLS000830170-01] | -4.6143 | 24.3 | 5.31 | 
CCN(CC)CCn1c(=N)n(CC(O)COc2ccccc2C)c2ccccc21 (stereo not drawn) [NCGC00101835-01] | -4.5643 | 27.3 | 3.35 | 
CCC(CC)c1cc([C@H]2CN3CC[C@H]2C[C@@H]3COC(=O)Nc2ccc(C(C)(C)C)cc2)nc(-c2ccncc2)n1 [NCGC00394559-01] | -4.3643 | 43.2 | 2.11 | 
COc1ccc(-[n+]2c(-c3ccc(Br)cc3)cn3c2CCc2ccccc2-3)cc1.[Br-] [MLS000391920-01] | -4.3643 | 43.2 | 4.22 | 
CC(C)(C)c1ccc(NC(=O)OC[C@H]2C[C@@H]3CCN2C[C@@H]3c2cc(C3CCCC3)nc(-c3ccncc3)n2)cc1 [NCGC00391636-01] | -4.3643 | 43.2 | 2.11 | 
CN1CCC(Nc2ncc3ncnc(Nc4ccc(F)c(Cl)c4)c3n2)CC1.Cl.Cl [NCGC00161422-01] | -4.7643 | 17.2 | 10.6 | 
Cc1nc(-c2ccccc2)cc([C@H]2CN3CC[C@H]2C[C@@H]3CN(Cc2ccco2)Cc2ccco2)n1 [NCGC00392555-01] | -4.5143 | 30.6 | 2.99 | 
COc1cc2nc(N3CCN(c4cc(C)ccc4C)CC3)nc(N)c2cc1OC.Cl [MLS001199642-01] | -4.3643 | 43.2 | 6.68 | 
O=C(Nc1ccc(Nc2ccncc2)cc1)c1ccc(Nc2ccnc3ccc([N+](=O)[O-])cc23)cc1[N+](=O)[O-] [MLS000756458-01] | -4.5643 | 27.3 |  | 1.33
